Test results: article PMC12040169 (PLOS Biology, 2025)

Assay: in vitro
Settings: human, hela cells, % viability

Compound | viability at 28.5 h, 10 µM [%] | viability at 28.5 h, 10 µM (bulk resorufin, single well) [%]
COc1ccc(CCCC(=O)Nc2ccc(N3CCNCC3)c3ccccc23)cc1OC [CBK028406T] | 105 | 
O=C(CCS(=O)(=O)c1ccccc1)Nc1ccc(N2CCNCC2)c2ccccc12 [CBK028408T] | 92.6 | 
O=C(Nc1ccc(N2CCNCC2)c2ccccc12)c1ccccc1 [CBK028412T] | 92.8 | 
CN(CC(=O)Nc1cc2ccccc2c(N2CCNCC2)n1)C(=O)c1ccccc1 [CBK028421T] | 93 | 
O=C(COc1ccccc1)NCc1ccc(OC2CCNCC2)cc1 [CBK028425T] | 98.2 | 
O=C(CCCOc1ccccc1)NCc1ccc(OC2CCNCC2)cc1 [CBK028427T] | 92.1 | 
Cn1cc(CC(=O)NCc2ccc(OC3CCNCC3)cc2)c2ccccc21 [CBK028430T] | 92.8 | 
S=C(Nc1cccnc1)N[C@H]1CC[C@@]2(c3cccnc3)CCN(Cc3ccccc3)[C@H]2C1 [CBK028450] | 94.8 | 
CC(C)CNC(=S)N[C@H]1CC[C@@]2(c3cccnc3)CCN(Cc3ccccc3)[C@H]2C1 [CBK028460] | 125 | 
NCC1CCN(c2cc(C(F)(F)F)c3scc(C(=O)NCCC4=CCCCC4)c3n2)CC1 [CBK028475] | 83.2 | 
COc1ccc2sc(C)nc2c1 [CBK028488] | 101 | 
COC(=O)CCC1(C)CN(C)CCC1=O (stereo not shown) [CBK028494] | 85 | 
O=C(c1ccccc1Br)N1CCCCC1 [CBK028504] | 87.6 | 
CC(O)(CC#N)c1ccccc1 (stereo not shown) [CBK028508] | 114 | 
N#CC(c1ccc(O)cc1)N1CCCCC1 (stereo not shown) [CBK028556] | 94.4 | 
O=C(Nc1ccccc1)Nc1cnns1 [CBK028557] |  | 102
C[n+]1cn(/N=C/c2ccco2)cn1 [CBK028562I] | 104 | 
O=C(O)C1(NS(=O)(=O)c2ccc(Cl)cc2)CCCCC1 [CBK028566] | 111 | 
CC1CN(c2nccn(CCOc3ccc(Br)cc3)c2=O)CCN1 (stereo not shown) [CBK028596T] | 94.2 | 
O=c1c(N2CCCNCC2)nccn1CCOc1ccc(Br)cc1 [CBK028613T] | 95 | 
O=c1c(N2CCCNCC2)nccn1CCOc1ccc(Oc2ccccc2)cc1 [CBK028615T] | 101 | 
Fc1cc(F)c(OCCCCOc2nccnc2N2CCNCC2)cc1F [CBK028624T] | 105 | 
Cc1ccc(S(=O)(=O)Nc2sc3c(c2C(=O)N2CCN(C)CC2)CCCC3)cc1[N+](=O)[O-] [CBK028650] | 93.9 | 
O=C(Nc1ccc(F)cc1)c1c(NS(=O)(=O)c2ccc(Oc3ccccc3)cc2)sc2c1CCCC2 [CBK028653] | 96.7 | 

Compound | viability at 28.5 h, 10 µM [%] | viability at 28.5 h, 10 µM (bulk resorufin, single well) [%]
O=C(Nc1ccc(F)cc1)c1c(NS(=O)(=O)Cc2ccccc2[N+](=O)[O-])sc2c1CCCC2 [CBK028654] | 85.3 | 
O=C(c1c(NS(=O)(=O)c2cccc3cccnc23)sc2c1CCCC2)N1CCOCC1 [CBK028655] | 84.2 | 
CCCc1ccc(S(=O)(=O)Nc2ccc(C(=O)OC)cc2)cc1 [CBK028682] | 99.5 | 
COC(=O)c1ccc(NS(=O)(=O)c2cccc3cccnc23)cc1 [CBK028694] | 104 | 
COC(=O)c1ccc(NS(=O)(=O)Cc2ccccc2)cc1 [CBK028699] | 91.4 | 
CC(=O)Nc1cccc(NS(=O)(=O)c2ccc(N3CCNCC3)c3ccccc23)c1 [CBK028702C] | 105 | 
Nc1nc2ccccc2c(=O)[nH]1 [CBK028707] | 101 | 
C/C(=N/Nc1nc[nH]n1)c1ccc(Cl)c(Cl)c1 [CBK028722] | 80 | 
CN(/N=C/c1cc(Br)cs1)c1ccc(Cl)nn1 [CBK028729] | 94.1 | 
Cc1cc(CN2CCCC2)cc(C)c1O [CBK028736C] | 96.3 | 
OCCSc1ccc(C(F)(F)F)cn1 [CBK028739] | 115 | 
CCCc1cnc(N2CCOCC2)nc1 [CBK028742] | 89 | 
CSc1nncc(-c2ccc(Cl)cc2)n1 [CBK028747] | 77.1 | 
OCCN1CCN(c2nccc(C(F)(F)F)n2)CC1 [CBK028754] | 107 | 
Clc1ccc(C2N(Cc3ccccc3)CCC3CCCCN32)cc1Cl (stereo not shown) [CBK028769] | 86.6 | 
c1ccc2c(CN3CCCNCC3)cccc2c1 [CBK028773] | 81 | 
CCCCN1CC(C(=O)OCC)=C(O)C1=O [CBK028774] | 110 | 
O=C1CC2(CCCC2)C(=O)N1CCNc1nccc(C(F)(F)F)n1 [CBK028777] | 97.4 | 
O=C(NCc1ccco1)C1CCN(c2nccc(C(F)(F)F)n2)CC1 [CBK028778] | 105 | 
Nc1cc2c(cc1Cl)C(=O)NC2=O [CBK028783] | 101 | 
CC(=O)Nc1ccc(S(N)(=O)=O)cc1Cl [CBK028784] | 109 | 
CC(C)(C)NC(=O)N1CCC(Nc2nccc(C(F)(F)F)n2)CC1 [CBK028788] | 113 | 
N#CCSc1nnc(NC(=O)Nc2ccccc2)s1 [CBK028792] | 85.3 | 
C#CC1(NC(=O)NS(=O)(=O)c2ccc(C)cc2)CCCCC1 [CBK028805] | 96.9 | 

Compound | viability at 28.5 h, 10 µM [%] | viability at 28.5 h, 10 µM (bulk resorufin, single well) [%]
Cn1c(S)nnc1-c1ccccc1F [CBK028811] | 95 | 
O=C1CN=C(N2C(=O)C3C4C=CC(C4)C3C2=O)C(=O)N1 (stereo not shown) [CBK028818] | 89.7 | 
Cc1nnc(N/N=C\c2ccco2)n1N [CBK028824C] | 97.4 | 
O=C(Nc1cc(Cl)ccc1Cl)c1ncn[nH]1 [CBK028834] | 92.9 | 
Nc1nonc1N/N=C/c1ccccc1F [CBK028838] | 68.4 | 
CC1=CC(=O)Nc2ccccc2S1 [CBK028872] | 118 | 
Cc1ccnc(SCC(N)=O)n1 [CBK028874] | 96.1 | 
COc1cc(CCN2CCN(C(C)C)CC2)cc(OC)c1OC [CBK028881C] | 89.8 | 
Cc1cc(C(=O)O)c2[nH]c3c(c2c1)CCCC3 [CBK028885] | 95.5 | 
COc1cc(C=C2C(=O)OC(C)(C(C)(C)C)OC2=O)cc(Br)c1OC (stereo not shown) [CBK028893] | 96.5 | 
CC(C)N1CCN(c2nccnc2Cl)CC1 [CBK028901] | 101 | 
CC(C)(C)c1cc(NC(=O)c2csc3c(C(F)(F)F)cc(N4CCN(Cc5ccccc5)CC4)nc23)no1 [CBK028962] | 108 | 
CC1(C)CC(NC2=CC(=O)CC2)CC(C)(C)N1 [CBK028997] | 115 | 
O=C(Nc1cccc(N2CCNCC2)c1)c1cnc2ccccc2c1 [CBK029415T] | 83.2 | 
COc1ccc(C(=O)Nc2cccnc2N2CCNCC2)cc1 [CBK029421T] | 102 | 
O=C(Nc1cccnc1N1CCNCC1)c1ccccn1 [CBK029425T] | 116 | 
O=C(Nc1ccc(N2CCNCC2)nc1)c1cccs1 [CBK029430T] | 111 | 
COc1ccc(C(=O)Nc2ccc(N3CCNCC3)nc2)cc1 [CBK029434T] | 111 | 
N#Cc1ccc(C(=O)Nc2ccc(N3CCNCC3)nc2)cc1 [CBK029435T] | 95.2 | 
O=C(Nc1ccccc1N1CCNCC1)c1cccs1 [CBK029443T] | 95.5 | 
O=C(NCc1ccccc1OC1CCNC1)c1cnccn1 (stereo not shown) [CBK029462T] | 101 | 
Cn1cccc1C(=O)NCc1ccccc1OC1CCNC1 (stereo not shown) [CBK029463T] | 88.7 | 
